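Cells were grown in 96-well plates and exposed to each compound for 48 hours at five concentrations; endpoints were interpolated linearly between bracketing concentrations, or set to the highest concentration if not reached. The concentration for 50% growth inhibition is given as GI50.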 Calls of active or inactive are those of the source. Rule as the data show it: active = GI50 up to about 1.1 µM and inactive = higher.
Legend:
Assay in all cases: NCI anticancer screen, dose series, 48 h
[1] = tested on: HOP-62
[2] = tested on: SF-295
[3] = tested on: TK-10
[4] = tested on: HCT-116
[5] = tested on: NCI-H23
[6] = tested on: SN12C
[7] = tested on: A549
[8] = tested on: OVCAR-5
[9] = tested on: UACC-257
[10] = tested on: SK-OV-3
[11] = tested on: MDA-MB-231
[12] = tested on: MDA-MB-435
[13] = tested on: SF-268
[14] = tested on: MOLT-4
[15] = tested on: OVCAR-3
[16] = tested on: OVCAR-8
[17] = tested on: UO-31
[18] = tested on: SK-MEL-5
[19] = tested on: NCI-H226

Measured: GI50

O=C(CSc1nccc(=O)[nH]1)c1ccccc1
inactive: [1] 63.1 µM | [2] 60.4 µM | [3] > 100 µM | [4] > 100 µM | [5] > 100 µM | [6] 49.9 µM | [7] > 100 µM | [8] > 100 µM | [9] > 100 µM | [10] > 100 µM | [11] 61.5 µM | [12] 62.2 µM | [13] > 100 µM | [14] > 100 µM | [15] 40.7 µM | [16] > 100 µM | [17] > 100 µM | [18] > 100 µM

CC(=O)Oc1cc2c(n(C)c1=O)CCC2
inactive: [1] > 100 µM | [2] > 100 µM | [3] > 100 µM | [4] > 100 µM | [5] > 100 µM | [6] > 100 µM | [7] > 100 µM | [8] > 100 µM | [9] > 100 µM | [10] > 100 µM | [11] > 100 µM | [12] > 100 µM | [13] > 100 µM | [14] > 100 µM | [16] 94.4 µM | [17] 99.5 µM | [19] > 100 µM | [18] > 100 µM

Nc1ccnc2c1ncn2[C@H]1C[C@H](O)[C@@H](CO)O1
inactive: [1] > 100 µM | [2] > 100 µM | [3] > 100 µM | [4] > 100 µM | [5] > 100 µM | [6] > 100 µM | [7] > 100 µM | [8] > 100 µM | [9] > 100 µM | [11] > 100 µM | [12] > 100 µM | [13] > 100 µM | [14] > 100 µM | [15] > 100 µM | [16] > 100 µM | [17] > 100 µM | [19] > 100 µM | [18] > 100 µM

C[N+](C)([O-])Cc1cc(-c2ccccc2)ccc1O
inactive: [1] > 100 µM | [2] > 100 µM | [3] > 100 µM | [4] > 100 µM | [5] > 100 µM | [6] > 100 µM | [7] > 100 µM | [8] > 100 µM | [9] > 100 µM | [11] > 100 µM | [12] > 100 µM | [13] > 100 µM | [14] 52.5 µM | [15] > 100 µM | [17] > 100 µM | [19] > 100 µM | [18] > 100 µM

— ChEMBL document CHEMBL1201862, “PubChem BioAssay data set” (2004)
